Experimental data published in patent US4266034A, “Method for producing microbial cells and use thereof to produce oxidation products” (priority 1979, dated 1981).

Assays:
[1] = system: methanol-grown Methylococcus capsulatus CRL M1 (NRRL B-11,219); assay: Production of 2-butanone from 2-butanol by cell suspensions, inhibition studies; type: cell-based; details: 1 mM
[2] = system: secondary alcohol dehydrogenase (SADH); assay: Purified secondary alcohol dehydrogenase (SADH) activity; type: biochemical, Pseudomonas sp. ATCC 21439; details: each inhibitor 1 mM; measured spectrofluorometrically
Protocol: Secondary alcohol dehydrogenase (SADH) from an obligate methanol utilizer, Pseudomonas sp. ATCC 21439 was purified as follows. […] 0.05 M sodium phosphate buffer, pH 7.0 with 0.5 mM dithiothretol (buffer A) and were disrupted sonically (5×1 min.). The crude extract was separated by centrifugation. The crude extract was heat-treated at 50° C. in a water bath for 10 minutes. The resulting precipitate was removed by centrifugation. To the supernatant solution, 25 ml of protamine sulfate solution (2% solution in 0.1 M Tris base) was added dropwise with continuous stirring. After standing for 30 minutes, the extract was centrifuged. The supernatant solution was fractionated with solid ammonium sulfate. The material precipitating between 30 and 60% saturation was collected and was dialized overnight against buffer A. The The dialized material was applied to a DEAE-cellulose column (3 cm by 35 cm) that had been equilibrated with buffer A. The secondary alcohol dehydrogenase activity was eluted in the void volume. This DEAE-cellulose eluate was concentrated by ammonium sulfate fractionation. Material precipitating between 30 and 50% ammonium sulfate saturation was collected by centrifugation and dialyzed overnight against A. This fraction was further washed and filtered through an Amicon unit with XM 50 membrane. The concentrated fraction (6 ml) inside the Amicon unit was applied to an Affi-Gel Blue column (0.8 cm×18 cm) which had been equilibrated with buffer A for affinity chromatography. The column was washed overnight with buffer A (0.18 ml./min.) and then was eluted with buffer A containing 5 mM NAD. Each 1 ml. fraction was collected.
The purified secondary alcohol dehydrogenase enzyme (SADH) may be used directly for converting C3 -C6 secondary alcohols to the corresponding methyl ketones by the procedures described above; however, a source of NAD^+ must be added to the reaction medium. One can determine the NAD-linked secondary alcohol dehydrogenase activity with a fluorescence spectrophotometer (Perkin Elmer, Model MPF 44A) by following the formation of reduced NAD (Ex 340 nm, Em 460 nm). The assay system (3 ml.) will typically contain: sodium phosphate buffer pH 7.0, 150 μmol; NAD 1.0 μmol; a given amount of enzyme preparation; and 20 μmol secondary alcohol. The reaction is started by the addition of secondary alcohol. One unit of SADH enzyme activity represents the reduction of one nmole NAD per minute.
The effect of metal-chelating agents and thioreagents on the activity of the purified SADH enzyme were studied. […] The possibility of ethanol or n-propanol as an inhibitor was studied.

[3] = system: secondary alcohol dehydrogenase; assay: Purified yeast-derived secondary alcohol dehydrogenase activity; type: biochemical, Pichia sp. NRRL Y-11,328; details: purified enzyme
Protocol: Large scale cultures of Pichia sp. NRRL Y-11,328 were grown with aeration at 30° C. in a 14-liter New Brunswick f fermentor in a mineral salt medium containing methanol (0.4%, v/v) as the sole carbon source. The cells (200 g., wet weight) were suspended in […] sodium phosphate buffer, pH 7.0, containing 1 mM dithiothreitol (buffer A), and crude extracts were prepared as described previously. To the crude extracts, 18 ml. of protamine sulfate solution [2% solution in 0.1 M tris (hydroxymethyl) aminomethane (tris) base] was added dropwise with continuous stirring. After standing for 30 min., the extracts were centrifuged at 20,000×g. for 60 min. The supernatant solution was fractionated with solid ammonium sulfate. Extracts were brought to 50% of saturation with respect to ammonium sulfate by addition of 313 g. of the salt per liter of extract. Precipitated proteins was removed by centrifugation, and 137 g. of ammonium sulfate was added per liter of the supernatant liquid to bring it to 70% of saturation. Material precipitating between 50 and 70% of saturation was collected by centrifugation and dissolved in buffer A. This preparation was dialyzed overnight against buffer A, and the dialyzed material was applied to a DEAE-cellulose column (5×40 cm) that had been equilibrated with buffer A. The sample was washed with 200 ml. of buffer A and eluted with 2 liters of buffer A that contained NaCl in a linear gradient running from a concentration of 0 to 0.5 M. Fractions of 15 ml. were collected. Fractions containing secondary alcohol dehydrogenase activity were pooled and were termed DEAE-cellulose eluate. The DEAE-cellulose eluate was concentrated by ammonium sulfate fractionation.
Secondary alcohol dehydrogenase activity was measured spectrophotometrically at 340 nm with a NAD^+ as an electron acceptor. The reaction mixture, in a total 3.0 ml., contained 50 mM phosphate buffer, pH 8.0, 5 μmoles NAD^+, crude extracts, and substrate. […] Protein concentration was determined by the method of Lowry et al.
The substrate specificity of the purified secondary alcohol dehydrogenase was examined spectrophotometrically.

[4] = system: cell-free particulate fractions derived from the methylotrophic microorganisms; assay: Inhibition of conversion of C3-C6 n-alkanes to sec. alcohols by cell-free particulate fractions; type: biochemical; details: oxygen and NADH
Description: The conditions for preparing the cell suspensions or the cell-free particulate fractions from methane-grown methylotroph microorganisms is the same as described above. […] Tables XXV and XXVI show the conversion of C3 -C6 n-alkanes to the corresponding secondary alcohols using cell suspensions and cell-free particulate fractions, respectively, of methane-grown methylotroph microorganisms.

In the case of `c1cnc2c(c1)ccc1cccnc12` [1,10-Phenanthroline], the “Inhibition of 2-butanone production (yes/no)” value [1] is reported as “inhibited”, the “% inhibition of SADH activity” value [2] is reported as 95% and the “inhibition of secondary alcohol dehydrogenase activity” value [3] is reported as “strongly inhibited”. For the same compound, the “inhibition of the conversion of n-alkanes to sec. alcohols” value [4] was “inhibited”.
